According to US20240067651A1 (Biohaven Therapeutics Ltd., priority 2019, published 2024):

Columns and labels:
[1] = Stability in Simulated Intestinal Fluid (SIF); format: in vitro ADME; set-up: key: % parent compound remaining relative to 0-minute sample
Procedure, shortened: (§1)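 Compound at 2 μg/mL final was incubated at 37 °C with shaking in SGF with pepsin (pH 1.2) or SIF with pancreatin (pH 6.8), sampled from 0 to 60 min. After acetonitrile precipitation, LC-MS/MS gave % parent remaining vs 0 min; half-life came from ln(% remaining) vs time.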

[2] = Stability in Simulated Gastric Fluid (SGF); format: in vitro ADME; set-up: key: % parent compound remaining relative to 0-minute sample
Procedure, shortened: as §1

[3] = Caco-2 Permeability Assay; format: in vitro ADME, human; details: human
Procedure, shortened: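 Caco-2 monolayers cultured 21 days (TEER >600 […]); test article at 10 μM in HBSS/HEPES pH 7.4 transport medium, dosed apical or basolateral, ±Pgp inhibitor. Incubated 90 min at 37 °C; both compartments quantified by LC-MS/MS. Papp (A→B, B→A), efflux ratio and % recovery calculated.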

[4] = Plasma Stability; format: in vitro ADME, human; details: % remaining at 1 h; human plasma, 1 μM, 37° C.
Procedure, shortened: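 Compounds incubated at 1 μM in fresh human plasma for 1 hour at 37° C, then protein-precipitated with acetonitrile/formic acid containing internal standard. Remaining parent measured by LC-MS/MS in triplicate, expressed as percent of control remaining.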

[5] = % remaining at 1 h, SIF with pancreatin pH 6.8, 2 μg/mL, 37° C.
[6] = % remaining at 1 h, SGF with pepsin pH 1.2, 2 μg/mL, 37° C.
[7] = Caco-2, pH 7.4, donor 10 μM, 90 minutes, 37° C., direction not given
[8] = bare number, no % and no time given
[9] = Caco-2, pH 7.4, no unit printed at the place (tables the 9th table and the 10th table have no head)

CC(C)OCCn1c(=S)n(COCC[Si](C)(C)C)c(=O)c2c1ccn2COCC[Si](C)(C)C [Example 71, 1-[2-(propan-2-yloxy)ethyl]-2-sulfanylidene-3,5-bis({[2-(trimethylsilyl)ethoxy]methyl})-1H,2H,3H,4H,5H-pyrrolo[3,2-d]pyrimidin-4-one]
SIF [1, 5]: 88% | SGF [2, 6]: 98% | Papp at 90 min, 10 µM [3, 7]: 0.178 ×10⁻⁶ cm/s | human Plasma stability [4]: 58%

CC(C)OCCn1c(=S)[nH]c(=O)c2c1ccn2COCC[Si](C)(C)C [Example 72, 1-[2-(propan-2-yloxy)ethyl]-2-sulfanylidene-5-{[2-(trimethylsilyl)ethoxy]methyl}-1H,2H,3H,4H,5H-pyrrolo[3,2-d]pyrimidin-4-one]
SIF [1, 5]: 98% | SGF [2, 6]: 97% | Papp at 90 min, 10 µM [3, 7]: 26.4 ×10⁻⁶ cm/s | human Plasma stability [4]: 78%

CC(C)OCCn1c(SCOCC[Si](C)(C)C)nc(=O)c2c1ccn2COCC[Si](C)(C)C [Example 73, 1-[2-(propan-2-yloxy)ethyl]-5-{[2-(trimethylsilyl)ethoxy]-methyl}-2-({[2-(trimethylsilyl)ethoxy]methyl}sulfanyl)-1H,4H,5H-pyrrolo[3,2-d]pyrimidin-4-one]
SIF [1, 5]: 55% | SGF [2, 6]: 35% | Papp at 90 min, 10 µM [3, 7]: < 0.717 ×10⁻⁶ cm/s | human Plasma stability [4]: 99%

CC(C)OCCn1c(=S)[nH]c(=O)c2c1ccn2COP(=O)(O)O [Example 83, ({4-oxo-1-[2-(propan-2-yloxy)ethyl]-2-sulfanylidene-1H,2H,3H,4H,5H-pyrrolo[3,2-d]pyrimidin-5-yl}methoxy)phosphonic acid]
SIF [1, 5]: 100% | SGF [2, 6]: 91% | Papp at 90 min, 10 µM [3, 7]: < 1.07 ×10⁻⁶ cm/s | human Plasma stability [4]: 95% @

CC(C)OCCn1c(=S)[nH]c(=O)c2c1ccn2COC(=O)[C@@H]1CCC(=O)N1C(=O)OC(C)(C)C [Example 85, 1-tert-Butyl 2-{4-oxo-1-[2-(propan-2-yloxy)ethyl]-2-sulfanylidene-1H,2H,3H,4H,5H-pyrrolo[3,2-d]pyrimidin-5-yl}methyl (2S)-5-oxopyrrolidine-1,2-dicarboxylate]
SIF [1, 5]: 90% | SGF [2, 6]: 78% | Papp at 90 min, 10 µM [3, 7]: 6.54 ×10⁻⁶ cm/s | human Plasma stability [4]: 30%

CC(C)OCCn1c(=S)[nH]c(=O)c2c1ccn2COC(=O)[C@@H]1CCC(=O)N1 [Example 86, {4-Oxo-1-[2-(propan-2-yloxy)ethyl]-2-sulfanylidene-1H,2H,3H,4H,5H-pyrrolo[3,2-d]pyrimidin-5-yl}methyl(2S)-5-oxopyrrolidine-2-carboxylate]
SIF [1, 5]: 17% | SGF [2, 6]: 98% | Papp at 90 min, 10 µM [3, 7]: 0.24 ×10⁻⁶ cm/s | human Plasma stability [4]: 0%

COCCOCCOCC(=O)OCn1ccc2c1c(=O)[nH]c(=S)n2CCOC(C)C [Example 87]
SIF [1, 5]: 28% | SGF [2, 6]: 97% | Papp at 90 min, 10 µM [3, 7]: 7.05 ×10⁻⁶ cm/s | human Plasma stability [4]: 0%

COCCOCCN(C)C(=O)OCSc1nc(=O)c2[nH]ccc2n1CCOC(C)C [Example 88, ({4-Oxo-1-[2-(propan-2-yloxy)ethyl]-1H,4H,5H-pyrrolo[3,2-d]pyrimidin-2-yl}sulfanyl)methyl N-[2-(2-methoxyethoxy)ethyl]-N-methylcarbamate]
SIF [1, 5]: 64% | SGF [2, 6]: 99% | Papp at 90 min, 10 µM [3, 7]: 0.751 ×10⁻⁶ cm/s | human Plasma stability [4]: 100%

COCCOCCN(C)C(=O)OCSc1nc(=O)c2c(ccn2COC(=O)N(C)CCOCCOC)n1CCOC(C)C [Example 89, (2-{[({[2-(2-methoxyethoxy)ethyl](methyl)carbamoyl}oxy)methyl]sulfanyl}-4-oxo-1-[2-(propan-2-yloxy)ethyl]-1H,4H,5H-pyrrolo[3,2-d]pyrimidin-5-yl)methyl N-[2-(2-methoxyethoxy)ethyl]-N-methylcarbamate]
SIF [1, 5]: 65% | SGF [2, 6]: 99% | Papp at 90 min, 10 µM [3, 7]: 0.488 ×10⁻⁶ cm/s | human Plasma stability [4]: 100%

CC(C)OCCn1c(=S)[nH]c(=O)c2c1ccn2COC(=O)OC(C)C [Example 90, {4-oxo-1-[2-(propan-2-yloxy)ethyl]-2-sulfanylidene-1H,2H,3H,4H,5H-pyrrolo[3,2-d]pyrimidin-5-yl}methyl propan-2-yl carbonate]
SIF [1, 5]: 56% remaining | SGF [2, 6]: 77% remaining | Papp at 90 min, 10 µM [3, 7]: 18 ×10⁻⁶ cm/s | human Plasma stability [4]: 0% remaining

CC(C)OCCn1c(SCOC(=O)OC(C)C)nc(=O)c2c1ccn2COC(=O)OC(C)C [Example 91, {4-oxo-2-[{{[(propan-2-yloxy)carbonyl]oxy}methyl)sulfanyl]-1-[2-(propan-2-yloxy)ethyl]-1H,4H,5H-pyrrolo[3,2-d]pyrimidin-5-yl}methyl propan-2-yl carbonate]
SIF [1, 5]: 99% remaining | SGF [2, 6]: 98% remaining | Papp at 90 min, 10 µM [3, 7]: 14.2 ×10⁻⁶ cm/s | human Plasma stability [4]: 1% remaining

COCCOCCC(=O)OCn1ccc2c1c(=O)[nH]c(=S)n2CCOC(C)C [Example 93, {4-oxo-1-[2-(propan-2-yloxy)ethyl]-2-sulfanylidene-1H,2H,3H,4H,5H-pyrrolo[3,2-d]pyrimidin-5-yl}methyl 3-(2-methoxyethoxy)propanoate]
SIF [1, 8]: 38 | SGF [2, 8]: 99 | Papp at 90 min, 10 µM [3, 7]: 16.8 ×10⁻⁶ cm/s | human Plasma stability [4]: 0% remaining

CC(C)OCCn1c(SCOC(=O)N(C)CC(F)(F)F)nc(=O)c2[nH]ccc21 [Example 94, ({4-oxo-1-[2-(propan-2-yloxy)ethyl]-1H,4H,5H-pyrrolo[3,2-d]pyrimidin-2-yl}sulfanyl)methyl N-methyl-N-(2,2,2-trifluoroethyl)carbamate]
SIF [1, 8]: 95 | SGF [2, 8]: 99 | Papp at 90 min, 10 µM [3, 7]: 15.1 ×10⁻⁶ cm/s | human Plasma stability [4]: 99% remaining

CC(C)OCCn1c(SCOC(=O)N(C)CC(F)(F)F)nc(=O)c2c1ccn2COC(=O)N(C)CC(F)(F)F [Example 95, {2-[{{[methyl(2,2,2-trifluoroethyl)carbamoyl]oxy}methyl)sulfanyl]-4-oxo-1-[2-(propan-2-yloxy)ethyl]-1H, 4H,5H-pyrrolo[3,2-d]pyrimidin-5-yl}methyl N-methyl-N-(2,2,2-trifluoroethyl)carbamate]
SIF [1, 8]: 95 | SGF [2, 8]: 100 | Papp at 90 min, 10 µM [3, 7]: 18.8 ×10⁻⁶ cm/s | human Plasma stability [4]: 99% remaining

CC(C)OCCn1c(SCOC(=O)N(CC(F)(F)F)CC(F)(F)F)nc(=O)c2[nH]ccc21 [Example 96, ({4-oxo-1-[2-(propan-2-yloxy)ethyl]-1H,4H,5H-pyrrolo[3,2-d]pyrimidin-2-yl}sulfanyl)methyl N,N-bis(2,2,2-trifluoroethyl)carbamate]
SIF [1, 8]: 97 | SGF [2, 8]: 98 | Papp at 90 min, 10 µM [3, 7]: 20.3 ×10⁻⁶ cm/s | human Plasma stability [4]: 98% remaining

CC(C)OCCn1c(SCOC(=O)N(CC(F)(F)F)CC(F)(F)F)nc(=O)c2c1ccn2COC(=O)N(CC(F)(F)F)CC(F)(F)F [Example 97, {2-[{{[bis(2,2,2-trifluoroethyl)carbamoyl]oxy}methyl)sulfanyl]-4-oxo-1-[2-(propan-2-yloxy)ethyl]-1H,4H,5H-pyrrolo[3,2-d]pyrimidin-5-yl}methyl N,N-bis(2,2,2-trifluoroethyl)carbamate]
SIF [1, 8]: 96 | SGF [2, 8]: 98 | Papp at 90 min, 10 µM [3, 7]: 30.8 ×10⁻⁶ cm/s | human Plasma stability [4]: 99% remaining

CC(C)OCCn1c(=S)n(COC(=O)N(CC(F)(F)F)CC(F)(F)F)c(=O)c2c1ccn2COC(=O)N(CC(F)(F)F)CC(F)(F)F [Example 98, [3-({[bis(2,2,2-trifluoroethyl)carbamoyl]oxy}methyl)-4-oxo-1-[2-(propan-2-yloxy)ethyl]-2-sulfanylidene-1H, 2H,3H,4H,5H-pyrrolo[3,2-d]pyrimidin-5-yl]methyl N,N-bis(2,2,2-trifluoroethyl)carbamate]
SIF [1, 8]: 80 | SGF [2, 8]: 95 | Papp at 90 min, 10 µM [3, 7]: 6.53 ×10⁻⁶ cm/s | human Plasma stability [4]: 99% remaining

CC(C)OCCn1c(=S)[nH]c(=O)c2c1ccn2C(C)OC(=O)OC1CCN(C(=O)OC(C)(C)C)CC1 (centres unmarked) [Example 99, tert-Butyl 4-{[(1-{4-oxo-1-[2-(propan-2-yloxy)ethyl]-2-sulfanylidene-1H,2H,3H,4H,5H-pyrrolo[3,2-d]pyrimidin-5-yl}ethoxy)carbonyl]oxy}piperidine-1-carboxylate]
SIF [1, 5]: 0% | SGF [2, 6]: 0% | Papp at 90 min, 10 µM [3, 7]: 0.111 ×10⁻⁶ cm/s | human Plasma stability [4]: 5%

CC(C)OCCn1c(=S)[nH]c(=O)c2c1ccn2COC(=O)NCC(F)(F)F [Example 100, {4-oxo-1-[2-(propan-2-yloxy)ethyl]-2-sulfanylidene-1H,2H,3H,4H,5H-pyrrolo[3,2-d]pyrimidin-5-yl}methyl N-(2,2,2-trifluoroethyl)carbamate]
SIF [1, 5]: 97% | SGF [2, 6]: 99% | Papp at 90 min, 10 µM [3, 9]: 27.7 ×10⁻⁶ cm/s | human Plasma stability [4]: 97%

COC(=O)[C@H](CCCCNC(=O)OC(C)(C)C)NC(=O)OCn1ccc2c1c(=O)[nH]c(=S)n2CCOC(C)C [Example 101, methyl (2S)-6-{[(tert-butoxy)carbonyl]amino}-2-{[{{4-oxo-1-[2-(propan-2-yloxy)ethyl]-2-sulfanylidene-1H,2H,3H,4H,5H-pyrrolo[3,2-d]pyrimidin-5-yl}methoxy)carbonyl]amino}hexanoate]
SIF [1, 5]: 96% | SGF [2, 6]: 75% | Papp at 90 min, 10 µM [3, 9]: 1.46 ×10⁻⁶ cm/s | human Plasma stability [4]: 97%
